Test results from patent US20190192543A1, “NOVEL USE” (IDOGEN AB, priority 2016, published 2019).

System: IDO1 gene expression in THP-1 cells
Assay: Induction of IDO1 in THP-1 cells (RT-qPCR)
Type: cell-based, human
Settings: for IDO1 expression (fold change): 96 hours, normalised to HPRT1, vs DMSO control
Procedure: THP-1 cells were harvested from appropriate number of T75 flasks. Cells were counted in a Bürker chamber, stained with 0.4% Trypan Blue. The appropriate number of cells for each experiment were transferred to a new tube and centrifuged at 1200 rpm, 5 min at room temperature (RT). The supernatant was discarded and fresh RPMI with 5% FBS were added to get a cell concentration of 2×10^5 cells/mL. The compound was added to the five separate wells in 6-well plates such that five different final concentrations were obtained after adding the cells. A control was added to one well in the 6-well plate to which cells were added. 1×10^6 cells per well were seeded out to achieve a total volume of 5 mL per well. The cells were incubated at 37° C. in 5% CO2 for 96 hours. After 96 hours the assay was stopped and the cells were lysed for the isolation of RNA.
Total RNA was extracted from THP-1 cells using the RNA RNeasy Mini extraction kit (Qiagen), according to the manufacturer's instructions. A SuperScript® VILO™ RT-kit (Thermo Fisher) was used to reverse transcribe 1 μg of total RNA to cDNA and qPCR was performed. The primers used for amplification of the human IDO1 gene were 5″-[…]-3″ (forward; SEQ ID No. 1) and 5″-[…]-3″ (reverse; SEQ ID No. 2). The primers used for amplification of the endogenous reference gene for human HPRT1 were 5″-[…]-3″ (forward; SEQ ID No. 3) and 5″-[…]-3″ (reverse; SEQ ID No. 4). In brief, RT-qPCR was performed in 20 μl reaction, consisting 10 μl PowerUp SYBR Green Master Mix, 0.5 μM of each primer, 4 μl diluted cDNA for amplification of IDO1 and 1.5 μl diluted cDNA for amplification of HPRT1. An iCycler iQ real-time detection system (Stratagene, Mx3000P, La Jolla, Calif., USA) with the following thermal profile: UDG incubation at 50° C. for 2 min, then denaturation at 95° C. for 5 min, followed by 45 cycles at 94° C. for 15 s, 58° C. for 30 s, and 60° C. for 30 s, was used to perform thermocycling and real-time detection of PCR products. After amplification a melting curve analysis was performed. The RT-qPCR experiments were always run in triplicate. IDO1 was normalised to the geometric means of two HPRT1 reference gene, using the ΔCt method. Within-group comparisons were normalized to one control sample, using the ΔΔCt method.
The procedure under “Induction of IDO1 in THP-1 cells” was followed such that the final concentrations set out in Table 1 were obtained.
Following RNA extraction and quantification of gene expression by RT-qPRC, as described above, induction of IDO1 gene expression using Samples 1 to 6 was investigated.

Structure (SMILES): Nc1ncn([C@H]2C[C@H](OP(=O)(O)OC[C@H]3O[C@@H](n4cnc5c(=O)[nH]c(N)nc54)C[C@@H]3O)[C@@H](CO)O2)c(=O)n1 [guadecitabine]
- IDO1 expression (fold change) (0.1 micromolar): 2.1 fold change
- IDO1 expression (fold change) (0.3 micromolar): 4.7 fold change
- IDO1 expression (fold change) (1 micromolar): 34 fold change
- IDO1 expression (fold change) (3 micromolar): 68 fold change
- IDO1 expression (fold change) (10 micromolar): 74 fold change
- increase of IDO1 gene expression (maximum over tested concentrations) (guadecitabine alone, 0.1-10 micromolar, highest induction at 10 micromolar): up to 74 fold
